Results as given in publication PMC13266999, “Designing Antibiotics with Inherent Resistance to Efflux as a Strategy to Revive Discovery against Multidrug-Resistant Pathogens” (Journal of Medicinal Chemistry, 2026).
Values after ≈ are worked out from the molar mass of the structure shown. Values joined by “and” are separate entries in the source; they are usually repeats but may differ in a detail not shown here. Identical values can stand only once. Like-named read-outs stand apart in the source and are kept apart here.

Legend:
S. aureus = assay: MIC (microbroth dilution); type: cell-based, Staphylococcus aureus; details: for MIC: Staphylococcus aureus
How it was run: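 Broth microdilution MICs, defined as lowest compound level without visible growth (OD600 read), on bacteria grown overnight to stationary phase then diluted. Twofold compound dilutions; some wells also received PMBN, final 30 μg/mL, to permeabilize the outer membrane.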

Na+ channel (site 2) = assay: SafetyScreen44; details: antagonist radioligand, specific binding, 1.0E-05 M
Experimental: (§1) Off-target pharmacology was evaluated using the Eurofins SafetyScreen44 in vitro panel. […] Binding assays were performed using radioligand displacement, and enzyme or uptake assays measured inhibition of control activity using validated detection methods (scintillation counting, fluorimetry or photometry). Responses were expressed as percent inhibition of control binding or activity. Based on Eurofins interpretation guidelines, effects ≥50% were considered significant, effects between 25% and 50% weak to moderate, and effects <25% were not considered biologically relevant.

H1 (h) = target: T1, H1 (h) (Homo sapiens, UniProt P35367); assay: SafetyScreen44; details: antagonist radioligand, specific binding, 1.0E-05 M
T1 construct: purchased Eurofins (SafetyScreen44)
T1 sequence (P35367 whole entry): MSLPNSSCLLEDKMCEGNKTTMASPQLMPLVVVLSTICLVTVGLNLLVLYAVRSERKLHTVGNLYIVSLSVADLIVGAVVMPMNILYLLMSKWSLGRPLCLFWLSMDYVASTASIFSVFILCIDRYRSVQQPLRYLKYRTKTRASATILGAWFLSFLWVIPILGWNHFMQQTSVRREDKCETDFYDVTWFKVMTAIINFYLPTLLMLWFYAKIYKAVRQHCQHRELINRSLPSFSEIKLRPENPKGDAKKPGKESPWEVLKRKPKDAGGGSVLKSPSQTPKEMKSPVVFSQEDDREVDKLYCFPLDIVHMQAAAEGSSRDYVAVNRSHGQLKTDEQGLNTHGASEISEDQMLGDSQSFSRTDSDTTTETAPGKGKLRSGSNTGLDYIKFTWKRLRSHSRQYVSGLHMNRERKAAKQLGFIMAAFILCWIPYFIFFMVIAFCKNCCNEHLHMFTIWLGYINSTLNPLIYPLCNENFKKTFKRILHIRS
Experimental: as §1

Acinetobacter baumannii = assay: MIC (microbroth dilution); type: cell-based; details: read-out: MIC
How it was run: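 Microbroth dilution in tryptic soy broth; Streptococcus spp. in cation-adjusted Mueller Hinton broth with 2.5% lysed horse blood, inocula from overnight stationary-phase cultures. MIC is lowest concentration without visible growth, OD600 read. Parallel MICs run with 30 μg/mL polymyxin B nonapeptide (final) as outer-membrane permeabilizer.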

CYP2B6 = CYP2B6 (Homo sapiens, UniProt P20813); assay: CYP inhibition; details: HLM, bupropion substrate, 10 μM
CYP2B6, sequence (P20813 whole entry): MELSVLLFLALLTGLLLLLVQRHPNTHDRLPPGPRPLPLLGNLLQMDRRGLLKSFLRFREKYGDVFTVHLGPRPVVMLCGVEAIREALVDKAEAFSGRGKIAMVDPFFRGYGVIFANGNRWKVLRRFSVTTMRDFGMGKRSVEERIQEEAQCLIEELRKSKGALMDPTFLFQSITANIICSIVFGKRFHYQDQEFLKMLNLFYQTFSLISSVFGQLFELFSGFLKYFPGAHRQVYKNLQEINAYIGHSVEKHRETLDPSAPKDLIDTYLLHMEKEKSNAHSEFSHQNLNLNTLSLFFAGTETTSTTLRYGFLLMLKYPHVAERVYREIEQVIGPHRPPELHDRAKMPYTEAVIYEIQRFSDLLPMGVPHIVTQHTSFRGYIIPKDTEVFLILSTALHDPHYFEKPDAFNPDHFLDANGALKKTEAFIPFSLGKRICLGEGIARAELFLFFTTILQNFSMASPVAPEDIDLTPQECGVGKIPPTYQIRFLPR
Experimental: Cytochrome P450 inhibition was assessed in vitro using human recombinant enzymes in microsomal preparations. […] Enzyme activity was quantified by monitoring formation of substrate-specific metabolites, and percent inhibition was calculated relative to vehicle control.

SafetyScreen44 targets = assay: SafetyScreen44 panel, remaining targets; type: binding, human; details: 10 μM
Experimental: as §1

Molecule Cc1cc(C)nc(N[C@@H]2CCN(c3c(F)cc4c(=O)c(C(=O)O)cn5c4c3OC[C@@H]5C)C2)n1 [Compound 50, (S)-10-((R)-3-((4,6-Dimethylpyrimidin-2-yl)amino)pyrrolidin-1-yl)-9-fluoro-3-methyl-7-oxo-2,3-dihydro-7H-[1,4]oxazino[2,3,4-ij]quinoline-6-carboxylic acid] has an MIC (S. aureus; MRSA / VISA, MRSA VISA (CDC #0220), read-out: MIC) of 1 µg/mL (≈ 2.21 µM), an MIC (S. aureus; MRSA / VISA, MRSA VISA (CDC #0221), read-out: MIC) of 0.5 µg/mL (≈ 1.1 µM) and an MIC (S. aureus; MRSA / VISA, MRSA VISA (CDC #0223), read-out: MIC) of 1 µg/mL (≈ 2.21 µM). It also gave an MIC (S. aureus; MRSA / VISA, MRSA VISA (CDC #0225), read-out: MIC) of 1 µg/mL (≈ 2.21 µM), an MIC (S. aureus; MRSA / VISA, MRSA VISA (CDC #0226), read-out: MIC) of 0.03 µg/mL (≈ 0.0662 µM) and an MIC (S. aureus; MRSA / VISA, MRSA VISA (CDC #0227), read-out: MIC) of 1 µg/mL (≈ 2.21 µM). For the same molecule, the MIC (S. aureus; MRSA / VISA, MRSA VISA (CDC AR-BANK #0215), read-out: MIC) was 16 µg/mL (≈ 35.3 µM), the MIC (S. aureus; MRSA / VISA, MRSA VISA (CDC AR-BANK #0216), read-out: MIC) was 0.5 µg/mL (≈ 1.1 µM) and the MIC (S. aureus; MRSA / VISA, MRSA VISA (CDC AR-BANK #0217), read-out: MIC) was 1 µg/mL (≈ 2.21 µM). It also gave an MIC (S. aureus; MRSA / VISA, MRSA VISA (Mu50), read-out: MIC) of 2 µg/mL (≈ 4.41 µM), an MIC (S. aureus; MRSA / VISA, MRSA VISA Mupirocin-R (CDC #0218), read-out: MIC) of 1 µg/mL (≈ 2.21 µM) and an MIC (S. aureus; MRSA, MRSA DAP-NS (ECL 2963621), read-out: MIC) of 0.25 µg/mL (≈ 0.551 µM). It also gave an MIC (S. aureus; MRSA, VanA MRSA (VRS1), read-out: MIC) of 1 µg/mL (≈ 2.21 µM), an MIC (S. aureus; MRSA, VanA MRSA (VRS2), read-out: MIC) of 0.5 µg/mL (≈ 1.1 µM) and an MIC (S. aureus; MRSA, VanA MRSA (VRS3a), read-out: MIC) of 0.5 µg/mL (≈ 1.1 µM). It also gave an MIC (S. aureus; MSSA / VISA, MSSA VISA (CDC #0222), read-out: MIC) of 0.03 µg/mL (≈ 0.0662 µM), an MIC (S. aureus; NCTC13277, NCTC 13277, + 4% albumin, read-out: MIC) of 4 µg/mL and an MIC (S. aureus; NCTC13616, NCTC 13616, + 4% albumin, read-out: MIC) of 2 µg/mL. It also gave an MIC (S. aureus; NRS 3 / VISA, VISA (NRS3), read-out: MIC) of 0.5 µg/mL (≈ 1.1 µM), an MIC (S. aureus; NRS 12 / VISA, VISA (NRS12), read-out: MIC) of 0.06 µg/mL (≈ 0.132 µM) and an MIC (S. aureus; NRS 56 / VISA, VISA (NRS56), read-out: MIC) of 1 µg/mL (≈ 2.21 µM). It also gave an MIC (S. aureus; NRS72, Sanger-476, NRS72, read-out: MIC) of 0.03 µg/mL (≈ 0.0662 µM), an MIC (S. aureus; NRS157, NRS157, read-out: MIC) of 0.03 µg/mL (≈ 0.0662 µM) and an MIC (S. aureus; SA-1199, read-out: MIC) of 0.016 µg/mL (≈ 0.0353 µM). The MIC (S. aureus; SA-1199B (NorA-overexpressing)) was 0.016 µg/mL (≈ 0.0353 µM), the MIC (S. aureus; VRSA, VRSA (ECL 2963646), read-out: MIC) was 0.5 µg/mL (≈ 1.1 µM) and the MIC (S. aureus; VanA (VRS11b), read-out: MIC) was 2 µg/mL (≈ 4.41 µM). For the same molecule, the MIC (S. aureus; majority of MSSA and MRSA isolates, read-out: MIC) was ≤ 0.0312 µg/mL, the “fold increase in MIC in the presence of 4% albumin” value (S. aureus; across the strain panel) was 2- to 8 fold and the “% Inhibition” value (Na+ channel (site 2)) was -10.2569%. The inhibition at 10 µM (H1 (h)) was 5.57%, the MIC (Acinetobacter baumannii; Acinetobacter baumannii, 86, oxa23) was 8 µg/mL (≈ 17.6 µM) and the MIC (Acinetobacter baumannii; Acinetobacter baumannii, 96, oxa23) was 4 µg/mL (≈ 8.82 µM). The MIC (Acinetobacter baumannii; Acinetobacter baumannii, 113, oxa23) was 4 µg/mL (≈ 8.82 µM), the MIC (Acinetobacter baumannii; Acinetobacter baumannii, A118) was ≤ 0.06 µg/mL and the MIC (Acinetobacter baumannii; Acinetobacter baumannii, A318) was 16 µg/mL (≈ 35.3 µM). The MIC (Acinetobacter baumannii; Acinetobacter baumannii, A319) was 4 µg/mL (≈ 8.82 µM), the MIC (Acinetobacter baumannii; Acinetobacter baumannii, A600 colR) was 4 µg/mL (≈ 8.82 µM) and the MIC (Acinetobacter baumannii; Acinetobacter baumannii, A601 colS) was 0.125 µg/mL (≈ 0.276 µM). For the same molecule, the MIC (Acinetobacter baumannii; Acinetobacter baumannii, ATCC17978, ATCC 17978) was 0.25 µg/mL (≈ 0.551 µM), the MIC (Acinetobacter baumannii; Acinetobacter baumannii, BAA1709, BAA-1709) was 0.125 µg/mL (≈ 0.276 µM) and the MIC (Acinetobacter baumannii; Acinetobacter baumannii, BAA1710, BAA-1710 (AYE)) was 8 µg/mL (≈ 17.6 µM). For the same molecule, the MIC (Acinetobacter baumannii; Acinetobacter baumannii, NCTC10303, NCTC 10303) was 0.125 µg/mL (≈ 0.276 µM), the MIC (Acinetobacter baumannii; Acinetobacter baumannii, NCTC13302, NCTC 13302, oxa24) was 4 µg/mL (≈ 8.82 µM) and the MIC (Acinetobacter baumannii; Acinetobacter baumannii, NCTC13424, NCTC 13424, oxa23) was > 64 µg/mL. For the same molecule, the MIC (Acinetobacter baumannii; Acinetobacter baumannii, T strain) was 8 µg/mL (≈ 17.6 µM), the MIC (Acinetobacter baumannii; Acinetobacter baumannii, UKA1, oxa23) was 4 µg/mL (≈ 8.82 µM) and the MIC (Acinetobacter baumannii; Acinetobacter baumannii, UKA2, Low resistance) was 8 µg/mL (≈ 17.6 µM). For the same molecule, the MIC (Acinetobacter baumannii; Acinetobacter baumannii, UKA9) was 0.125 µg/mL (≈ 0.276 µM), the MIC (Acinetobacter baumannii; Acinetobacter baumannii, UKA12, oxa23) was 4 µg/mL (≈ 8.82 µM) and the MIC (Acinetobacter baumannii; Acinetobacter baumannii, UKA13, oxa23) was 4 µg/mL (≈ 8.82 µM). For the same molecule, the MIC (Acinetobacter baumannii; Acinetobacter baumannii, UKA15, oxa23) was 4 µg/mL (≈ 8.82 µM), the MIC (Acinetobacter baumannii; Acinetobacter baumannii, UKA19) was 0.5 µg/mL (≈ 1.1 µM) and the MIC (Acinetobacter baumannii; Acinetobacter baumannii, W1) was 8 µg/mL (≈ 17.6 µM). For the same molecule, the CYP2B6 inhibition (CYP2B6) was 4.821% and < 10% and the “inhibition, all other / remaining targets” value (SafetyScreen44 targets) was < 25%.
